The results in this text go back to patent US20260258064A1 (SIRONAX LTD., priority 2023, published 2026).

The assay concerns the target T1, SARM1 (50-724) (Homo sapiens, UniProt Q6SZW1).
T1 construct: Purified SARM1 (50-724) with a final concentration of 2 nM was pre-incubated with a test compound
T1 sequence (Q6SZW1 50-724): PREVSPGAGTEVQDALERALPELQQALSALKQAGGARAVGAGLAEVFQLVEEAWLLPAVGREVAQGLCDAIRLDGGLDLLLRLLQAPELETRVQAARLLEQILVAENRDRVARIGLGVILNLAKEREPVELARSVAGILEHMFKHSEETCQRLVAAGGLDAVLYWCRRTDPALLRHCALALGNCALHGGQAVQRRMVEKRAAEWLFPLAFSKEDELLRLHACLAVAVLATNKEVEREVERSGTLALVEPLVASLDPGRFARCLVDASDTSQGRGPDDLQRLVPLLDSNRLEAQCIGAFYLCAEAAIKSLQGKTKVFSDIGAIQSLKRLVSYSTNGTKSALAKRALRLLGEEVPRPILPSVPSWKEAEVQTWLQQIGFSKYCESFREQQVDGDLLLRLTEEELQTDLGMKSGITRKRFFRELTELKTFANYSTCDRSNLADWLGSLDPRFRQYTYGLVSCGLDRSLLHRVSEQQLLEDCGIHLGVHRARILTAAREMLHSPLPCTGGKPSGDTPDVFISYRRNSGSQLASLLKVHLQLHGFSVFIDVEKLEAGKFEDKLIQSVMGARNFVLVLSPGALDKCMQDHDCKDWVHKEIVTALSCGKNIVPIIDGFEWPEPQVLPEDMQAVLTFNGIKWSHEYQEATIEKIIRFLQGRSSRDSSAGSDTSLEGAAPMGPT
The assay can be described thus: SARM1 (50-724) enzymatic assay (LC-MS/MS). As to conditions: Purified SARM1 (50-724) 2 nM, NMN as activator, NAD+ as substrate, 1 h at room temperature, read-out: IC50 (SARM1 inhibitory activity). Format: biochemical. The essentials:
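Reaction buffer was Dulbecco's PBS. Compound and 2 nM human SARM1 (50-724) were pre-incubated 15 min at room temperature, then […] NAD^+ and 200 µM NMN activator were added for 1 h at room temperature. Acetonitrile (70%) stop, LC-MS/MS read-out, IC50 values.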

Usually IC50 stands for the midpoint of a concentration-inhibition curve. Turning to `FC(F)(Cl)Oc1cnccc1-n1cnnc1-c1nc2cc(C(F)(F)F)ccc2[nH]1` [Compound 215, 2-(4-(3-(chlorodifluoromethoxy)pyridin-4-yl)-4H-1,2,4-triazol-3-yl)-5-(trifluoromethyl)-1H-benzo[d]imidazole], the IC50 was ≤ 100 nM.
To `O=C1CCCN1c1c(-c2nncn2-c2cnccc2C(F)(F)F)[nH]c2ccc(C(F)(F)F)cc12` [Compound 367, 1-(5-(trifluoromethyl)-2-(4-(4-(trifluoromethyl)pyridin-3-yl)-4H-1,2,4-triazol-3-yl)-1H-indol-3-yl)pyrrolidin-2-one] belongs > 1000 nM.
To `FC(F)(F)c1ccc2[nH]c(-c3nncn3-c3cccc(Cl)c3Cl)nc2c1` [Example 15, 2-[4-(2,3-dichlorophenyl)-1,2,4-triazol-3-yl]-5-(trifluoromethyl)-1H-benzimidazole] belongs ≤ 100 nM.
To `O=c1[nH]nc(-c2cccc(Cl)c2Cl)n1-c1nc2cc(C(F)(F)F)ccc2[nH]1` [Compound 30, 3-(2,3-Dichlorophenyl)-4-[5-(trifluoromethyl)-1H-benzimidazol-2-yl]-1H-1,2,4-triazol-5-one] belongs > 1000 nM; to `CS(=O)(=O)Cc1nnc(-c2nc3cc(C(F)(F)F)cc(F)c3[nH]2)n1-c1cccc(F)c1Cl` [Compound 182, 2-(4-(2-Chloro-3-fluorophenyl)-5-((methylsulfonyl)methyl)-4H-1,2,4-triazol-3-yl)-7-fluoro-5-(trifluoromethyl)-1H-benzo[d]imidazole], ≤ 100 nM; to `FC(F)(F)c1ccc2[nH]c([C@H]3COC[C@@H]3c3ccccc3)nc2c1` (single isomer, unassigned) [Compound 350], > 1000 nM.
Take `FC(F)(F)c1ccc2[nH]c(-c3nncn3-c3cnccc3C(F)(F)F)c(-c3cccnn3)c2c1` [Compound 426, 3-pyridazin-3-yl-5-(trifluoromethyl)-2-[4-[4-(trifluoromethyl)-3-pyridyl]-1,2,4-triazol-3-yl]-1H-indole]: the IC50 was ≤ 100 nM.
To `Cn1cc(-c2cccc(Cl)c2Cl)c(-c2nc3cc(C(F)(F)F)ccc3[nH]2)cc1=O` [Example 48] belongs ≤ 100 nM; to `Cn1ncc(-c2cccc(Cl)c2Cl)c1-c1nc2cc(C(F)(F)F)ccc2[nH]1` [Example 39], > 1000 nM; to `FC(F)(F)Oc1cnccc1-n1cnnc1-c1nc2cc(C(F)(F)F)ccc2[nH]1` [Compound 190], ≤ 100 nM.
Then `FC(F)(F)c1ccc2[nH]c(-c3cnncc3-c3cccc(Cl)c3Cl)nc2c1` [Example 44], with 100 to 500 nM; and `FC(F)(F)c1ccc2[nH]c(-c3nncn3-c3cnncc3C3CC3)nc2c1` [Compound 220, 2-(4-(5-cyclopropylpyridazin-4-yl)-4H-1,2,4-triazol-3-yl)-5-(trifluoromethyl)-1H-benzo[d]imidazole], with 100 to 500 nM; and `C=C(CF)c1cc(F)c2[nH]c(-c3nncn3-c3cnccc3C(F)(F)F)nc2c1` [Compound 286, 7-fluoro-5-(3-fluoroprop-1-en-2-yl)-2-(4-(4-(trifluoromethyl)pyridin-3-yl)-4H-1,2,4-triazol-3-yl)-1H-benzo[d]imidazole], with ≤ 100 nM.
Then `CC(C)(C)Oc1cnccc1-n1cnnc1-c1nc2cc(C(F)(F)F)ccc2[nH]1` [Compound 219, 2-(4-(3-(tert-butoxy)pyridin-4-yl)-4H-1,2,4-triazol-3-yl)-5-(trifluoromethyl)-1H-benzo[d]imidazole], with 100 to 500 nM; and `FC(F)(F)c1ccc2[nH]c(-c3nnnn3-c3cccc(Cl)c3Cl)nc2c1` [Example 99], with 100 to 500 nM.
As for `FC(F)(F)c1ccc2[nH]c(-c3nncn3-c3c(Cl)cccc3Cl)nc2c1` [Compound 149, 2-(4-(2,6-dichlorophenyl)-4H-1,2,4-triazol-3-yl)-5-(trifluoromethyl)-1H-benzo[d]imidazole], the IC50 was ≤ 100 nM.
Then `CSc1nnc(-c2nc3cc(C(F)(F)F)ccc3[nH]2)n1-c1cccc(Cl)c1Cl` [Compound 116], with 100 to 500 nM.
For the compound `Clc1cccc(-n2cnnc2-c2nc3cc(-c4cncnc4)ccc3[nH]2)c1Cl` [Example 73, 2-(4-(2,3-dichlorophenyl)-4H-1,2,4-triazol-3-yl)-5-(pyrimidin-5-yl)-1H-benzo[d]imidazole], the IC50 fell in the range of 100 to 500 nM.
Then `OCc1nnc(-c2nc3cc(C(F)(F)F)ccc3[nH]2)n1-c1cccc(Cl)c1Cl` [Example 90], with ≤ 100 nM; and `Fc1c(CC(F)F)cc(F)c2[nH]c(-c3nncn3-c3cnccc3C(F)(F)F)nc12` [Compound 329, 5-(2,2-difluoroethyl)-4,7-difluoro-2-[4-[4-(trifluoromethyl)-3-pyridyl]-1,2,4-triazol-3-yl]-1H-benzimidazole], with ≤ 100 nM; and `CC(c1cc(F)c2[nH]c(-c3nncn3-c3cnccc3C(F)(F)F)nc2c1)c1nccs1` (single isomer, unassigned) [Compound 434, 2-(1-(7-fluoro-2-(4-(4-(trifluoromethyl)pyridin-3-yl)-4H-1,2,4-triazol-3-yl)-1H-benzo[d]imidazol-5-yl)ethyl)thiazole], with ≤ 100 nM.
Then `COC(C)(C)c1ccc2[nH]c(-c3nncn3-c3cccc(Cl)c3Cl)nc2c1` [Example 110], with ≤ 100 nM; and `O=c1cc(-c2nc3cc(C(F)(F)F)ccc3[nH]2)c(-c2cccc(Cl)c2Cl)cn1CCO` [Example 64], with ≤ 100 nM; and `Cc1ccc2[nH]c(-c3nncn3C3CCCC3)c(CO)c2c1` [Compound 11, [2-(4-cyclopentyl-1,2,4-triazol-3-yl)-5-methyl-1H-indol-3-yl]methanol], with > 1000 nM.
To `CC(C)(C)c1ccc2[nH]c(-c3nncn3-c3cnccc3C(F)(F)F)cc2n1` [Compound 348, 5-(tert-butyl)-2-(4-(4-(trifluoromethyl)pyridin-3-yl)-4H-1,2,4-triazol-3-yl)-1H-pyrrolo[3,2-b]pyridine] belongs ≤ 100 nM; to `CC(C)(CO)c1ccc2[nH]c(-c3nncn3-c3cccc(Cl)c3Cl)nc2c1` [Example 103], ≤ 100 nM.
For `COc1ccc(-c2cccc(Cl)c2Cl)c(-c2nc3cc(C(F)(F)F)ccc3[nH]2)n1` [Example 60], the IC50 was > 1000 nM.
To `Cn1cc(OC(F)(F)F)c(-n2cnnc2-c2nc3cc(C(F)(F)F)ccc3[nH]2)cc1=S` [Compound 242, 1-methyl-5-(trifluoromethoxy)-4-(3-(5-(trifluoromethyl)-1H-benzo[d]imidazol-2-yl)-4H-1,2,4-triazol-4-yl)pyridine-2(1H)-thione] belongs ≤ 100 nM; to `Fc1cc(C2CC23CCOCC3)cc2nc(-c3nncn3-c3cnccc3C(F)(F)F)[nH]c12` (centres unmarked) [Compound 360, 7-fluoro-5-(6-oxaspiro[2.5]octan-2-yl)-2-[4-[4-(trifluoromethyl)-3-pyridyl]-1,2,4-triazol-3-yl]-1H-benzimidazole], ≤ 100 nM; to `CC1CC(c2cc(F)c3[nH]c(-c4nncn4-c4cnccc4C(F)(F)F)nc3c2)CO1` (centres unmarked) [Compound 423, 7-fluoro-5-(5-methyltetrahydrofuran-3-yl)-2-[4-[4-(trifluoromethyl)-3-pyridyl]-1,2,4-triazol-3-yl]-1H-benzimidazole], ≤ 100 nM.
Then `FC(F)(F)Oc1cn2ccnc2cc1-n1cnnc1-c1nc2cc(C(F)(F)F)ccc2[nH]1` [Compound 232, 2-(4-(6-(trifluoromethoxy)imidazo[1,2-a]pyridin-7-yl)-4H-1,2,4-triazol-3-yl)-5-(trifluoromethyl)-1H-benzo[d]imidazole], with ≤ 100 nM; and `FC(F)(F)c1ccc2[nH]c(-c3nnccc3N3CCOCC3)nc2c1` [Compound 457, 4-(3-(5-(trifluoromethyl)-1H-benzo[d]imidazol-2-yl)pyridazin-4-yl)morpholine], with 500 to 1000 nM; and `CN(CCCO)c1cc(F)c2[nH]c(-c3nncn3-c3cnccc3C(F)(F)F)nc2c1` [Compound 451, 3-((4-fluoro-2-(4-(4-(trifluoromethyl)pyridin-3-yl)-4H-1,2,4-triazol-3-yl)-1H-benzo[d]imidazol-6-yl)(methyl)amino)propan-1-ol], with ≤ 100 nM.
Then `CS(=O)(=O)Cc1nnc(-c2cc3cc(C(F)(F)F)ccc3[nH]2)n1-c1cnccc1C(F)(F)F` [Compound 380, 2-(5-((methylsulfonyl)methyl)-4-(4-(trifluoromethyl)pyridin-3-yl)-4H-1,2,4-triazol-3-yl)-5-(trifluoromethyl)-1H-indole], with ≤ 100 nM.
On to `FC(F)(F)Oc1ccc(Oc2ncco2)cc1-n1cnnc1-c1nc2cc(C(F)(F)F)ccc2[nH]1` [Compound 281, 2-(4-(trifluoromethoxy)-3-(3-(5-(trifluoromethyl)-1H-benzo[d]imidazol-2-yl)-4H-1,2,4-triazol-4-yl)phenoxy)oxazole], for which the IC50 is ≤ 100 nM.
